Reference: US20120121540A1 (priority 2007, published 2012)

Assay: HCV replicon assay (luciferase reporter, ET cell line)
Format: cell-based
Settings: Hepatitis C virus, HCV replicon luciferase activity in ET cells
In short: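 ET cells carry a stable luciferase-ubiquitin-neo/NS3-5B subgenomic HCV replicon with adaptive mutations. Compounds (0.1 nM to […], 0.5% DMSO) were added 24 h after plating, and luciferase was read 48-72 h later. EC50 came from 10-point 2-fold dilutions fitted to a Hill equation; TC50 was measured in parallel by WST-1.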

Structure (SMILES) | inhibition at 10 µM
O=C(c1nc2c(C(F)(F)F)cc(-c3ccoc3)cn2c1Cl)N1CC(NS(=O)(=O)C2CC2)C1 [Compound 498, Cyclopropanesulfonic Acid[1-(3-chloro-6-furan-3-yl-8-trifluoromethyl-imidazo[1,2-a]pyridine-2-carbonyl)-azetidin-3-yl]-amide] | 95%
O=C(c1nc2c(C(F)(F)F)cc(-c3ccoc3)cn2c1Cl)N1CC(NS(=O)(=O)c2cccs2)C1 [Compound 499, Thiophene-2-sulfonic acid [1-(3-chloro-6-furan-3-yl-8-trifluoromethyl-imidazo[1,2-a]pyridine-2-carbonyl)-azetidin-3-yl]-amide] | 93.4%
CCS(=O)(=O)NC1CN(C(=O)c2nc3c(C(F)(F)F)cc(-c4ccoc4)cn3c2Cl)C1 [Compound 500, Ethanesulfonic Acid[1-(3-chloro-6-furan-3-yl-8-trifluoromethyl-imidazo[1,2-a]pyridine-2-carbonyl)-azetidin-3-yl]-amide] | 98%
CN(C)S(=O)(=O)NC1CN(C(=O)c2nc3c(C(F)(F)F)cc(-c4ccoc4)cn3c2Cl)C1 [Compound 504] | 98.9%
CS(=O)(=O)N1CC(NC(=O)c2nc3c(C(F)(F)F)cc(-c4ccoc4)cn3c2Cl)C1 [Compound 510, 3-Chloro-6-furan-3-yl-8-trifluoromethyl-imidazo[1,2-a]pyridine-2-carboxylic Acid (1-methanesulfonyl-azetidin-3-yl)-amide] | 24%
O=C(NC1CN(S(=O)(=O)c2ccccc2)C1)c1nc2c(C(F)(F)F)cc(-c3ccoc3)cn2c1Cl [Compound 511, 3-Chloro-6-furan-3-yl-8-trifluoromethyl-imidazo[1,2-a]pyridine-2-carboxylic Acid (1-benzenesulfonyl-azetidin-3-yl)-amide] | 98.6%
O=C(NC1CN(C(=O)Cc2ccccc2)C1)c1nc2c(C(F)(F)F)cc(-c3ccoc3)cn2c1Cl [Compound 514, 3-Chloro-6-furan-3-yl-8-trifluoromethyl-imidazo[1,2-a]pyridine-2-carboxylic Acid (1-phenylacetyl-azetidin-3-yl)-amide] | 6.6%
CS(=O)(=O)NC1CN(C(=O)c2cn3cc(-c4ccoc4)cc(C(F)(F)F)c3n2)C1 [Compound 519, N-[1-(6-Furan-3-yl-8-trifluoromethyl-imidazazo[1,2-a]pyridine-2-carbonyl)-azetidin-3-yl]-methanesulfonamide] | 84.7%
CS(=O)(=O)NC1CN(C(=O)c2nc3c(C(F)(F)F)cc(-c4cn[nH]c4)cn3c2Cl)C1 [Compound 521, N-{1-[3-Chloro-6-(1H-pyrazol-4-yl)-8-trifluoromethyl-imidazo[1,2-a]pyridine-2-carbonyl]-azetidin-3-yl}-methanesulfonamide] | 72.8%
CS(=O)(=O)NC1CN(C(=O)c2nc3c(C(F)(F)F)cc(-c4cn[nH]c4)cn3c2Br)C1 [Compound 522, N-{1-[3-Bromo-6-(1H-pyrazol-4-yl)-8-trifluoromethyl-imidazo[1,2-a]pyridine-2-carbonyl]-azetidin-3-yl}-methanesulfonamide] | 88.6%
O=C(c1nc2c(C(F)(F)F)cc(-c3cc[nH]c3)cn2c1Cl)N1CCC(c2cccc(F)c2)C1 (stereo not drawn) [Compound 524, [3-Chloro-6-(1H-pyrrol-3-yl)-8-trifluoromethyl-imidazo[1,2-a]pyridin-2-yl]-[3-(3-fluoro-phenyl)-pyrrolidin-1-yl]methanone] | 91%
O=C(c1nc2c(C(F)(F)F)cc(-c3c[nH]c4ccccc34)cn2c1Cl)N1CCC(c2cccc(F)c2)C1 (stereo not drawn) [Compound 525, [3-Chloro-6-(1H-indol-3-yl)-8-trifluoromethyl-imidazo[1,2-a]pyridin-2-yl]-[3-(3-fluoro-phenyl)-pyrrolidin-1-yl]methanone] | 23.4%
O=C(c1nc2c(C(F)(F)F)cc(-c3ccoc3)cn2c1Cl)N1CCN(c2ccccc2F)CC1 [Compound 529, (3-Chloro-6-furan-3-yl-8-trifluoromethyl-imidazo[1,2-a]pyridine-2-yl)-[4-(2-fluoro-phenyl)-piperazin-1-yl]-methanone] | 78.9%
O=C(c1nc2c(C(F)(F)F)cc(-c3ccoc3)cn2c1Cl)N1CCN(c2ccc(F)cc2)CC1 [Compound 530, (3-Chloro-6-furan-3-yl-8-trifluoromethyl-imidazo[1,2-a]pyridine-2-yl)-[4-(4-fluoro-phenyl)-piperazin-1-yl]-methanone] | 80.3%
O=C(c1nc2c(C(F)(F)F)cc(-c3ccoc3)cn2c1Cl)N1CCN(c2cccc(F)c2)CC1 [Compound 531, (3-Chloro-6-furan-3-yl-8-trifluoromethyl-imidazo[1,2-a]pyridine-2-yl)-[4-(3-fluoro-phenyl)-piperazin-1-yl]-methanone] | 79.3%
O=C(c1nc2c(C(F)(F)F)cc(-c3ccoc3)cn2c1Cl)N1CCN(c2ccccn2)CC1 [Compound 532, (3-Chloro-6-furan-3-yl-8-trifluoromethyl-imidazo[1,2-a]pyridine-2-yl)-[4-pyridin-2-yl-piperazin-1-yl]-methanone] | 79.1%
O=C(c1nc2c(C(F)(F)F)cc(-c3ccoc3)cn2c1Cl)N1CCN(c2ccncc2)CC1 [Compound 533, (3-Chloro-6-furan-3-yl-8-trifluoromethyl-imidazo[1,2-a]pyridine-2-yl)-[4-pyridin-4-yl-piperazin-1-yl]-methanone] | 23.4%

Structure (SMILES) | inhibition at 10 µM
O=C(c1nc2c(C(F)(F)F)cc(-c3ccoc3)cn2c1Cl)N1CCN(c2ccccc2)CC1 [Compound 534, (3-Chloro-6-furan-3-yl-8-trifluoromethyl-imidazo[1,2-a]pyridine-2-yl)-(4-phenyl-piperazin-1-yl)-methanone] | 77.6%
O=C(c1nc2c(C(F)(F)F)cc(-c3ccoc3)cn2c1Cl)N1CCC(c2ccccc2)CC1 [Compound 535, (3-Chloro-6-furan-3-yl-8-trifluoromethyl-imidazo[1,2-a]pyridine-2-yl)-(4-phenyl-piperidin-1-yl)-methanone] | 86.6%
O=C(c1nc2c(C(F)(F)F)cc(-c3ccoc3)cn2c1Cl)N1CCN(c2nccs2)CC1 [Compound 536, (3-Chloro-6-furan-3-yl-8-trifluoromethyl-imidazo[1,2-a]pyridine-2-yl)-(4-thiazol-2-yl-piperazin-1-yl)-methanone] | 95.8%
O=C(c1nc2c(C(F)(F)F)cc(-c3ccoc3)cn2c1Cl)N1CCN(c2cnccn2)CC1 [Compound 537] | 61%
O=C(c1nc2c(C(F)(F)F)cc(-c3ccoc3)cn2c1Cl)N1CCN(c2ccc(F)c(F)c2)CC1 [Compound 538] | 78.3%
O=C(c1nc2c(C(F)(F)F)cc(-c3ccoc3)cn2c1Cl)N1CCN(c2ccc(C(F)(F)F)cc2)CC1 [Compound 539] | 78.9%
N#Cc1ccccc1C1CCN(C(=O)c2nc3c(C(F)(F)F)cc(-c4ccoc4)cn3c2Cl)CC1 [Compound 540, 2-[1-(3-Chloro-6-furan-3-yl-8-trifluoromethyl-imidazo[1,2-a]pyridine-2-carbonyl)-piperidin-4-yl]-benzonitrile] | 98.6%
O=C(c1nc2c(C(F)(F)F)cc(-c3ccoc3)cn2c1Cl)N1CCC(c2ccccc2Cl)CC1 [Compound 541, (3-Chloro-6-furan-3-yl-8-trifluoromethyl-imidazo[1,2-a]pyridin-2-yl)-[4-(2-chloro-phenyl)-piperidin-1-yl]-methanone] | 89.7%
Cc1ccccc1C1CCN(C(=O)c2nc3c(C(F)(F)F)cc(-c4ccoc4)cn3c2Cl)CC1 [Compound 542, (3-Chloro-6-furan-3-yl-8-trifluoromethyl-imidazo[1,2-a]pyridin-2-yl)-(4-o-tolyl-piperidin-1-yl)-methanone] | 72.4%
O=C(c1nc2c(C(F)(F)F)cc(-c3ccoc3)cn2c1Cl)N1CCN(c2cccnc2)CC1 [Compound 543, (3-Chloro-6-furan-3-yl-8-trifluoromethyl-imidazo[1,2-a]pyridin-2-yl)-(4-pyridin-3-yl-piperazin-1-yl)-methanone] | 91.2%
O=C(c1nc2c(C(F)(F)F)cc(-c3ccoc3)cn2c1Cl)N1CCCCC1c1ccccc1F (stereo not drawn) [Compound 544, (3-Chloro-6-furan-3-yl-8-trifluoromethyl-imidazo[1,2-a]pyridin-2-yl)-[2-(2-fluoro-phenyl)-piperidin-1-yl)-methanone] | 75.4%
O=C(c1nc2c(C(F)(F)F)cc(-c3ccoc3)cn2c1Cl)N1CCCCC1c1cccc(F)c1 (stereo not drawn) [Compound 545, (3-Chloro-6-furan-3-yl-8-trifluoromethyl-imidazo[1,2-a]pyridin-2-yl)-[2-(3-fluoro-phenyl)-piperidin-1-yl)-methanone] | 70.2%
O=C(c1nc2c(C(F)(F)F)cc(-c3ccoc3)cn2c1Cl)N1CCCC(c2ccccc2F)C1 (stereo not drawn) [Compound 547, (3-Chloro-6-furan-3-yl-8-trifluoromethyl-imidazo[1,2-a]pyridin-2-yl)-[3-(2-fluoro-phenyl)-piperidin-1-yl)-methanone] | 94.7%
O=C(c1nc2c(C(F)(F)F)cc(-c3ccoc3)cn2c1Cl)N1CCCC(c2ccc(F)cc2)C1 (stereo not drawn) [Compound 548, (3-Chloro-6-furan-3-yl-8-trifluoromethyl-imidazo[1,2-a]pyridin-2-yl)-[3-(4-fluoro-phenyl)-piperidin-1-yl)-methanone] | 91.2%
O=C(c1nc2c(C(F)(F)F)cc(-c3ccoc3)cn2c1Cl)N1CCCC(c2cccc(F)c2)C1 (stereo not drawn) [Compound 549, (3-Chloro-6-furan-3-yl-8-trifluoromethyl-imidazo[1,2-a]pyridin-2-yl)-[3-(3-fluoro-phenyl)-piperidin-1-yl)-methanone] | 94.3%
COc1ccccc1C1CCN(C(=O)c2nc3c(C(F)(F)F)cc(-c4ccoc4)cn3c2Cl)CC1 [Compound 550, (3-Chloro-6-furan-3-yl-8-trifluoromethyl-imidazo[1,2-a]pyridin-2-yl)-[4-(2-methoxy-phenyl)-piperidin-1-yl)-methanone] | 64.8%
